Data set [1] is described as follows: Toxicity assessment in ICR mice. Type of data set: in vivo. The source says: For the toxicity assessment of GTN057 in vivo, we intraperitoneally (i.p.)‐injected male 5‐week‐old ICR mice (CLEA, […]) dissolved in 1% Tween® 80 + 10% DMSO in saline on 2 consecutive days of every 3‐day period for 2 weeks. The mice were weighed every week. Peripheral blood was collected with a heparinized hematocrit tube (Terumo, Tokyo) from the tail vein of each mouse every week and was stained with Türk's solution (Merck). The numbers of leukocytes and neutrophils were counted using light microscopy.

For data set [2], the system named is FGF-2 stimulated ERK1/2, STAT3, AKT1 phosphorylation. As to the kind of experiment: Western blot, FGF-2-stimulated signaling in KMS11 cells. Type of data set: cell-based, human. To be noted: KMS11 cells stimulated by FGF-2. The procedure: MM cells (4 × 10^5 cells/mL) were incubated with 0–20 μM GTN057 for 12 h. The cells were then co‐cultured with 0–50 ng/mL of hepatocyte growth factor (HGF) (PeproTech, London) or 0–20 ng/mL of fibroblast growth factor (FGF)‐2 (PeproTech) with 1 unit/mL of heparin in RPMI containing 4% dialyzed FCS (Gibco) for the KMS11 and KMS34 cells and 10% dialyzed FCS for the KMS21 cells for 15 min at RT (room temperature). A549 cells were co‐cultured with 0–50 ng/mL of epidermal growth factor (EGF) (PeproTech) in Eagle's MEM containing 4% dialyzed FCS for 15 min at RT. […]
The protein concentrations were measured using a BCA Protein Assay Kit (Thermo Fisher Scientific). […]
Antibodies against phospho‐STAT3 (Tyr705), phospho‐Akt (Ser473), p44/42 MAPK (Erk 1/2), phosphor‐p44/42 MAPK (Thr202/Tyr 204), and phospho‐c‐Met (Tyr1234/1235) (all from Cell Signaling Technology, Danvers, MA) or STAT3, Akt, c‐Met, and β‐actin (all from Santa Cruz Biotechnology, Santa Cruz, CA) or phospho‐c‐Met (Tyr1230/1234/1235) (Biosource, Camarillo, CA for KMS34 cells in Figure 3A) were each used at 1:1000 dilution. […] The Western blotting signals were detected by enhanced ECL chemiluminescence (Amersham). The signal intensity of each band was quantified densitometrically with ImageJ software (ver. 1.48, U.S. National Institutes of Health).
Background: A western blot detects proteins with antibodies after separation by electrophoresis.

For data set [3], the system named is MUM24 cells. As to the kind of experiment: Combination treatment with bortezomib or lenalidomide, MTT assay. Particulars: GTN057 with bortezomib or lenalidomide. Type of data set: cell-based, human. How it is done:
FIGURE 1 GTN057 induced the cell death of MM cells in vitro. (A) The chemical structure of GTN057 and the putative degradation product, GTN054. (B) GTN057 induced the cell death of the MM cell lines. The cells were incubated with GTN057 for 48 h, and the number of viable cells was counted by trypan blue exclusion test. Bars: mean ± SD (n = 3). *p < 0.05 versus control. (C) Growth‐inhibitory effects of GTN057 on CD138‐positive cells obtained from MM patients' bone marrow. Cells were treated with GTN057. The viability was evaluated by an MTT assay. Bars: mean ± SD (n = 3). *p < 0.05 versus control. (D) Combination treatment of GTN057 with bortezomib (Btz) or lenalidomide (Len), two major standard myeloma drugs, in MUM24 cells. The viability was evaluated by an MTT assay. Bars: mean ± SD (n = 3). *p < 0.05 versus GTN057 alone. […]
For the 3‐[…] (MTT) assay (Roche Diagnostics), 6 × 10^4 cells/mL of CD138‐positive bone marrow cells were cultured in 96‐well plates in triplicate with various concentrations of GTN057 for 48 h. The cell viability was examined by MTT dye absorbance in accord with the manufacturer's manual. […]
In general terms: Formazan colour is commonly taken as a measure of viable cells.

Data set [4] concerns KMS27 cells. Description: Growth inhibition, trypan blue exclusion assay. Type of data set: cell-based. To be noted: Homo sapiens, KMS-27, KMS27, 48 h. How it is done: (§1) For the trypan blue exclusion assay, 2 × 10^5 cells/mL of each MM cell line were incubated with various concentrations of GTN057 (0–20 μM). The cells were cultured in triplicate plates, and viable cells were evaluated by a trypan blue exclusion assay (Trypan Blue Stain 0.4%, Gibco) using an automatic cell counter (TC20™, Bio‐Rad).

Data set [5] relates to KMS28 cells. As to the kind of experiment: Growth inhibition, trypan blue exclusion assay. Type of data set: cell-based. To be noted: Homo sapiens, KMS28, 48 h. How it is done:
as §1

The subject of data set [6] is KMS26 cells. As to the kind of experiment: Growth inhibition, trypan blue exclusion assay. Type of data set: cell-based. Particulars: Homo sapiens, KMS-26, KMS26, 48 h. How it is done: as §1
In data set [7] the test system is MUM24 cells. Description: Growth inhibition, trypan blue exclusion assay. To be noted: Homo sapiens, MUM24, 48 h. Type of data set: cell-based. The procedure: as §1
In data set [8] the test system is KMS11 cells. Description: Growth inhibition, trypan blue exclusion assay. Particulars: Homo sapiens, KMS-11, KMS11, 48 h. Type of data set: cell-based. The procedure:
as §1

Data set [9] deals with KMS21 cells. As to the kind of experiment: Growth inhibition, trypan blue exclusion assay. Type of data set: cell-based. To be noted: Homo sapiens, KMS21, 48 h. How it is done:
as §1

Data set [10] concerns KMM1 cells. As to the kind of experiment: Growth inhibition, trypan blue exclusion assay. Type of data set: cell-based. Particulars: Homo sapiens, KMM-1, KMM1, 48 h. How it is done:
as §1

Some results are limits rather than exact numbers.

Broadly, the IC50 is the concentration at which inhibition is half-maximal. For `COc1c(OC(C)=O)c2c(c(O)c1C(C)C)C(=O)CC1C(C)(C)CCC[C@]1(O)C2` (stereo partly drawn) [GTN057], the “Neutropenia and systemic toxicity” value in data set [1] (100 mg/kg, 2 days of each 3-day period over 2 weeks, mice) was “no significant neutropenia or systemic toxicity”. The “Body weight and leukocyte count” value in [1] (40 or 100 mg/kg i.p., 2 consecutive days of each 3-day period for 2 weeks, ICR mice) is reported as “neither a loss of body weight nor leukocytopenia”. For the same molecule, in data set [1] (i.p., 2 days of every 3-day period, mice), the Maximal tolerated dose is on record as no less than 100 mg/kg. Besides, the “ERK1/2, STAT3, AKT1 phosphorylation levels” value in [2] is “did not clearly change”. For the same molecule, the “Effect of combination treatment” value in data set [3] was “additive anti‐myeloma effect”. Further, the IC50 in data set [4] was determined as 7.93 µM; in [5], 24 µM; in [6], 9.91 µM; in data set [7], 5.29 µM; in [8], 11.2 µM; in [9], 10.1 µM. The midpoint of inhibition in [10], the IC50, lay at 20.5 µM.

For the origin of these results see publication PMC10166914, “GTN057, a komaroviquinone derivative, induced myeloma cells' death in vivo and inhibited c‐MET tyrosine kinase” (Cancer Medicine, 2023).
